From patent US9533983B2, “Antiplatelet agent” (Mitsubishi Tanabe Pharma Corporation, priority 2009, dated 2017)

Columns and labels:
Assay type in all cases: cell-based
Conditions in all cases: Cavia porcellus, guinea pig PRP
[1] = tested on: Collagen-Induced Platelet Aggregation; assay: Platelet aggregation inhibitory activity: collagen-induced platelet aggregation in platelet rich plasma
Protocol: (§1) A blood of a guinea pig was sampled by using a 1/10 volume of a 3.8% sodium citrate as a platelet aggregation inhibitor, and a platelet rich plasma (PRP) was separated by centrifuging the blood sample at 1100 rpm for 10 min. After fractionating the PRP in the upper layer, the lower layer was centrifuged at 3000 rpm for 10 min to fractionate the platelet poor plasma (PPP). To 100 μL of PRP, a 1 μL solution of each compound was added, and after still standing at 37° C. for 1 min, the mixture was stirred at 37° C. for 1 min by a stirrer. Then, 11 μL of collagen, ristocetin, or ADP was added thereto to induce the platelet aggregation. The platelet aggregation ability was measured by using the mCM hematolaser 313M (L-M-S Inc.). Based on the assumption that a light transmittance of PPP corresponds to a 100% coagulation value, an aggregation rate at each concentration of the compound was determined, then, an IC50 value was calculated therefrom.
[Platelet Aggregation Inhibitory Activities: Collagen-Induced Platelet Aggregation]

[2] = tested on: ADP-Induced Platelet Aggregation; assay: Platelet aggregation inhibitory activity: ADP-induced platelet aggregation in platelet rich plasma
Protocol: as §1
[Platelet Aggregation Inhibitory Activities: ADP-Induced Platelet Aggregation]

[3] = tested on: Ristocetin-Induced Platelet Aggregation; assay: Platelet aggregation inhibitory activity: ristocetin-induced platelet aggregation in platelet rich plasma
Protocol: as §1
[Platelet Aggregation Inhibitory Activities: Ristocetin-Induced Platelet Aggregation]

Row | Compound | IC50 [1] | IC50 [2] | IC50 [3]
1 | COc1ccc(-n2c(-c3ccc(F)cn3)cc3cc(C(F)(F)F)cnc32)cn1 [Example 184, 2-(5-fluoropyridin-2-yl)-1-(6-methoxypyridin-3-yl)-5-(trifluoromethyl)-1H-pyrrolo[2,3-b]pyridine] | 17 nM | > 10000 nM | 
2 | COc1ccc(-n2c(-c3cn(C)nn3)nc3cc(OC(F)(F)F)ccc32)nn1 [Example 167, 1-(6-methoxypyridazin-3-yl)-2-(1-methyl-1H-1,2,3-triazol-4-yl)-5-(trifluoromethoxy)-1H-benzimidazole] | 157 nM | > 10000 nM | 135 nM
3 | COc1ccc(-n2c(-c3ccccn3)nc3cc(OC(F)(F)F)ccc32)nn1 [Example 3, 1-(6-methoxypyridazin-3-yl)-2-pyridin-2-yl-5-(trifluoromethoxy)-1H-benzimidazole] | 32 nM | > 10000 nM | 32 nM
4 | COc1ccc(-n2c(-c3cocn3)nc3cc(C(F)(F)F)ccc32)nn1 [Example 88, 1-(6-methoxypyridazin-3-yl)-2-(1,3-oxazol-4-yl)-5-(trifluoromethyl)-1H-benzimidazole] | 120 nM | > 10000 nM | 80 nM
5 | COc1ccc(-n2c(-c3ccccn3)nc3cc(OC(F)(F)F)cnc32)cn1 [Example 147, 3-(6-methoxypyridin-3-yl)-2-pyridin-2-yl-6-(trifluoromethoxy)-3H-imidazo[4,5-b]pyridine] | 26 nM | > 10000 nM | 13 nM
6 | COc1ccc(-n2c(-c3ccccn3)cc3cc(C(F)(F)F)ccc32)cn1 [Example 182, 1-(6-methoxypyridin-3-yl)-2-pyridin-2-yl-5-(trifluoromethyl)-1H-indole] | 116 nM | > 10000 nM | 
7 | COc1ccc(-c2c3ccc(C(F)(F)F)cc3nn2-c2ccc(F)cn2)cn1 [Example 185, 2-(5-fluoropyridin-2-yl)-3-(6-methoxypyridin-3-yl)-6-(trifluoromethyl)-2H-indazole] | 70 nM | > 10000 nM | 
8 | COc1ccc(-n2c(-c3ccccn3)nc3cc(C(F)(F)F)ccc32)cn1 [Example 14, 1-(6-methoxypyridin-3-yl)-2-pyridin-2-yl-5-(trifluoromethyl)-1H-benzimidazole] | 200 nM | > 10000 nM | 
9 | COc1ccc(-n2c(-c3c[nH]cn3)nc3cc(C(F)(F)F)cnc32)cn1 [Example 11, 2-(1H-Imidazol-4-yl)-3-(6-methoxypyridin-3-yl)-6-(trifluoromethyl)-3H-imidazo[4,5-b]pyridine] | 130 nM |  | 57 nM
10 | Cc1ccc(-n2c(-c3ccc(C#N)cn3)nc3cc(C(F)(F)F)cnc32)cn1 [Example 130, 6-[3-(6-methylpyridin-3-yl)-6-(trifluoromethyl)-3H-imidazo[4,5-b]pyridin-2-yl]nicotinonitrile] | 177 nM |  | 170 nM
11 | COc1cnc(-n2c(-c3ccccn3)nc3cc(C(F)(F)F)cnc32)cn1 [Example 125, 3-(5-methoxypyrazine-2-yl)-2-pyridin-2-yl-6-(trifluoromethyl)-3H-imidazo[4,5-b]pyridine] | 29 nM |  | 27 nM
12 | COc1ccc(-n2c(-c3ncoc3C)nc3cc(C(F)(F)F)cnc32)cn1 [Example 126, 3-(6-methoxypyridin-3-yl)-2-(5-methyl-1,3-oxazol-4-yl)-6-(trifluoromethyl)-3H-imidazo[4,5-b]pyridine] | 194 nM |  | 90 nM
13 | COc1ccc(-n2c(-c3ccc(F)cn3)nc3cc(C(F)(F)F)ccc32)cn1 [Example 21, 2-(5-fluoropyridin-2-yl)-1-(6-methoxypyridin-3-yl)-5-(trifluoromethyl)-1H-benzimidazole] | 130 nM |  | 390 nM
14 | CNc1ccc(-n2c(-c3ccc(C#N)cn3)nc3cc(C(F)(F)F)cnc32)cn1 [Example 150, 6-{3-[6-(methylamino)pyridin-3-yl]-6-(trifluoromethyl)-3H-imidazo[4,5-b]pyridin-2-yl]nicotinonitrile] | 205 nM |  | 205 nM
15 | COc1ccc(-n2c(-c3csc(C)n3)nc3cc(C(F)(F)F)ccc32)nn1 [Example 94, 1-(6-methoxypyridazin-3-yl)-2-(2-methyl-1,3-thiazol-4-yl)-5-(trifluoromethyl)-1H-benzimidazole] | 190 nM |  | 100 nM
16 | COc1ccc(-n2c(-c3cscn3)nc3cc(C(F)(F)F)ccc32)nn1 [Example 89, 1-(6-methoxypyridazin-3-yl)-2-(1,3-thiazol-4-yl)-5-(trifluoromethyl)-1H-benzimidazole] | 53 nM |  | 70 nM
17 | COc1cnc(-n2c(-c3coc(C)n3)nc3cc(C(F)(F)F)cnc32)cn1 [Example 152, 3-(5-methoxypyrazine-2-yl)-2-(2-methyl-1,3-oxazol-4-yl)-(trifluoromethyl)-3H-imidazo[4,5-b]pyridine] | 86 nM |  | 86 nM
18 | COc1ccc(-n2c(-c3ncccc3C#N)nc3cc(C(F)(F)F)ccc32)nn1 [Example 81, 2-[1-(6-methoxypyridazin-3-yl)-5-(trifluoromethyl)-1H-benzimidazole-2-yl]nicotinonitrile] | 220 nM |  | 500 nM
19 | CCc1ccc(-c2nc3cc(C(F)(F)F)ccc3n2-c2ccc(OC)nn2)nc1 [Example 56, 2-(5-ethylpyridin-2-yl)-1-(6-methoxypyridazin-3-yl)-5-(trifluoromethyl)-1H-benzimidazole] | 47 nM |  | 28 nM
20 | COc1ccc(-n2c(-c3ccccc3)nc3cc(C(F)(F)F)ccc32)cn1 [Example 18, 1-(6-methoxypyridin-3-yl)-2-phenyl-5-(trifluoromethyl)-1H-benzimidazole] | 490 nM |  | 120 nM
21 | FC(F)(F)c1ccc2c(c1)nc(-c1ccccn1)n2-c1ccccn1 [Example 12, 1,2-Dipyridin-2-yl-5-(trifluoromethyl)-1H-benzimidazole] | 230 nM |  | 190 nM
22 | COc1ccc(-n2c(-c3ccccn3)nc3cc(OC(C)C(F)(F)F)cnc32)cn1 (centres unmarked) [Example 176, 3-(6-methoxypyridin-3-yl)-2-pyridin-2-yl-6-(2,2,2-trifluoro-1-methylethoxy)-3H-imidazo[4,5-b]pyridine] | 55 nM |  | 63 nM
23 | COc1ccc(-n2c(-c3ccccn3)nc3cc(C(F)(F)F)c(Cl)cc32)cn1 [Example 55, 6-chloro-1-(6-methoxypyridin-3-yl)-2-pyridin-2-yl-5-(trifluoromethyl)-1H-benzimidazole] | 84 nM |  | 60 nM
24 | COc1ccc(-n2c(-c3cnc(C#N)cn3)nc3cc(C(F)(F)F)cnc32)cn1 [Example 8, 5-[3-(6-methoxypyridin-3-yl)-6-(trifluoromethyl)-3H-imidazo[4,5-b]pyridin-2-yl]pyrazine-2-carbonitrile] | 150 nM |  | 95 nM
25 | COc1ccc(-n2c(-c3cocn3)nc3cc(C(F)(F)F)cnc32)cn1 [Example 107, 3-(6-methoxypyridin-3-yl)-2-(1,3-oxazol-4-yl)-6-(trifluoromethyl)-3H-imidazo[4,5-b]pyridine] | 66 nM |  | 35 nM
26 | CCCOc1cnc2c(c1)nc(-c1ccccn1)n2-c1ccc(OC)nc1 [Example 173, 3-(6-methoxypyridin-3-yl)-6-propoxy-2-pyridin-2-yl-3H-imidazo[4,5-b]pyridine] | 77 nM |  | 85 nM
